Measurements as given in the NIST ThermoML archive (doi:10.1016/j.tca.2005.08.007).

Assay: xn = mol fraction of the nth substance listed
Settings: 298.15 K, 101 kPa, Liquid; for viscosity: Capillary tube (Ostwald / Ubbelohde) method; for mass density: Vibrating tube method

C1CCCCC1 [cyclohexane] + CCCCCC
Settings	mass density [kg/m3]	viscosity [mPa·s]
x1 = 0.0397	655.8	0.2833
x1 = 0.2011	674.91	0.3282
x1 = 0.2776	683.97	0.3485
x1 = 0.3617	693.92	0.3778
x1 = 0.4409	703.31	0.4077
x1 = 0.5889	720.83	0.4815
x1 = 0.6848	732.18	0.5355
x1 = 0.7608	741.18	0.5994
x1 = 0.8074	746.7	0.6444
x1 = 0.9205	760.09	0.7507

CCCCCC [hexane] + Cc1ccccc1
Settings	mass density [kg/m3]	viscosity [mPa·s]
x2 = 0.0406	657.47	0.2774
x2 = 0.2028	690.93	0.3073
x2 = 0.2804	706.95	0.3185
x2 = 0.3596	723.29	0.3272
x2 = 0.4423	740.35	0.3421
x2 = 0.5997	772.81	0.3812
x2 = 0.6757	788.5	0.4028
x2 = 0.7597	805.83	0.43
x2 = 0.8412	822.63	0.4644
x2 = 0.9199	838.87	0.499

C1CCCCC1 [cyclohexane] + Cc1ccccc1
Settings	mass density [kg/m3]	viscosity [mPa·s]
x2 = 0.0721	777.43	0.8574
x2 = 0.1813	784.63	0.7693
x2 = 0.2798	791.6	0.7024
x2 = 0.3613	799.02	0.651
x2 = 0.4416	806	0.6116
x2 = 0.6003	820.17	0.5532
x2 = 0.6784	827.33	0.5329
x2 = 0.7615	834.61	0.5181
x2 = 0.8396	843.41	0.5029
x2 = 0.9202	853.16	0.4976
